Test results as given in patent US12410174B1, “Small molecular inhibitors of sting signaling compositions and methods of use” (TYERELL IMMUNOTHERAPEUTICS INC, priority 2020, dated 2025).
“Also recorded” adds a separate entry of the source.

Columns and labels:
[1] = molecular target: T1, human STING CBD-CTT (152-379) (STING152-379H) (Homo sapiens, UniProt Q86WV6); assay: Thermal shift assay (TSA) for binding to purified STING; details: purified STING152-379H
T1 construct: Fraction containing the 237 amino acid (27 kDA) STING protein; made in house; host or cells: E. coli BL21 DE3 RIPL Codon Plus
Description: Purified STING protein was used as bait to identify binding compounds, using a thermal shift assay (TSA). A library containing 250,000 compounds (Enamine, Monmouth Jct., NJ) was surveyed. Compounds that bound to STING were then examined for their ability to inhibit STING signaling, see Examples 1-4 vide infra. In the presence of cytosolic DNA species, STING becomes activated to drive the transcription of cytokines such as type I IFN. Compounds binding to STING via TSA were subsequently examined for their ability prevent cytosolic DNA species from activating the type I interferon (IFN) promoter, using a live cell assay. This assay comprised immortalized human fibroblasts (hTERT) that were stably transfected with the type I IFN promoter driving luciferase as well as the CMV promoter driving SEAP (hTERT-pIFNβ-Glu). The ability of the small molecules to prevent activation of the type I IFN promoter and the transcription of luciferase, but not SEAP in response to cytosolic DNA species can be assessed. The activation of STING, typically by CDNs, in turn activates the transcription factors NF-κB and IRF3, both of which are required to induce the transcriptional stimulation of the Type I IFN promoter, but not the CMV promoter (IRF3 and NF-kB transcription factor binding sites are not contained in the CMV promoter). […]

STING signaling [2] = assay: Western blot of STING, pTBK1 and pIRF3 in hTERT cells after ISD transfection; type: cell-based, human; details: 6 hours after ISD transfection
Method: (§1) Example 8: Immunoblot analysis: Equal amounts of proteins were resolved on sodium dodecyl sulfate (SDS)-Polyacrylamide gels and then transferred to polyvinylidene fluoride (PVDF) membranes (Millipore). After blocking with 5% Blocking Reagent, membranes were incubated with various primary antibodies (and appropriate secondary antibodies). The image was resolved using an enhanced chemiluminescence system ECL (Thermo Scientific) and detected by autoradiography (Kodak). Antibodies: rabbit polyclonal antibody against STING was developed in our laboratory as described previously in Ishikawa et al, 2008; other antibodies were obtained from following sources: β-actin (Sigma Aldrich), p-IRF3 (Cell Signaling), IRF3 (Santa Cruz Biotechnology), p-p65 (Cell Signaling), p65 (Cell Signaling), p-TBK1 (Cell Signaling), TBK1 (Abcam), cGAS (Cell Signaling).

STING signaling [3] = assay: qPCR of Cxcl10 / Cxcl5 in MEF cells after ISD transfection; type: cell-based, murine
Method: (§2) MEFs were obtained from E13.5 embryos by a standard procedure. Bone Marrow Derived Macro-phages (BMDM) were isolated from hind-limb femurs of 8-10 weeks old WT and Trex1 KO (TKO) mice. The hematopoietic cells from the bone marrow were cultured in complete DMEM (Invitrogen) including 10 ng/ml of Mouse Recombinant Colony-Stimulating Factor (M-CSF, R&D Systems) for 10 to 14 days.
(§3) Example 11: qPCR total RNA were reverse-transcribed using M-MLV Reverse Transcriptase (Promega). Real-time PCR was performed using Taqman Gene Expression Assay (Applied Biosystems) for innate immune genes and inflammatory cytokines.

STING signaling [4] = assay: Western blot of STING, TBK1 and IRF3 phosphorylation in MEF cells; type: cell-based, murine; details: cytosolic DNA
Method: as §1

[5] = system: TREX1-deficient macrophages; assay: qPCR of Cxcl10 in TREX1 knockout (TKO) bone marrow derived macrophages; type: cell-based, mouse; details: TKO BMDM, compared to DMSO control
Method: as §2, §3

TREX1-deficient mice = assay: Treatment of TREX1 knockout (TKO) mice: survival and heart histopathology; type: in vivo, mouse
Method: Example 12: Mouse Treatment: Trex1 Hetero knockout mice (Trex1^+/−) were generated by crossing the hetero mice. Mouse genotypes from tail biopsies were determined using Real Time PCR with specific probes designed for each gene by commercial vendor (Transnetyx). Trex1 KO (TKO) mice (4-5 weeks old) were intraperitoneally injected with 25 μg Z811 per mouse in 200 μL 1% DMSO in PBS. The mice were injected three times a week for 5 months. The survival rates were evaluated.
Example 13: Histopathology. Mice are sacrificed and the heart tissues were fixed in 10% formalin for 48 hours.

T1 sequence (Q86WV6 with tags, fused parts or gaps): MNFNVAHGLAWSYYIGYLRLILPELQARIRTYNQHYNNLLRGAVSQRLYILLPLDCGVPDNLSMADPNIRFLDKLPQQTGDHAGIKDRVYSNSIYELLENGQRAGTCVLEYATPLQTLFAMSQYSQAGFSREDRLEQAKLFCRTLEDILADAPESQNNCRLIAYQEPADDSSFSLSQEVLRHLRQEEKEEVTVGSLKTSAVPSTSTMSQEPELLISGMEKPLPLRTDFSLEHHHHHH

Compound: N#Cc1c(NC(=O)c2ccccc2Cl)n(Cc2ccccc2)c2nc3ccccc3nc12 [Compound Y1, N-{1-benzyl-3-cyano-1H-pyrrolo[2,3-ß]quinoxalin-2-yl}-2-chlorobenzamide]
- binding to STING (TSA) [1]: binds to and stabilizes STING; also recorded: can bind to STING
- STING, TBK1 and IRF3 phosphorylation (Western blot) (STING signaling [2]): robustly prevented STING phosphorylation and subsequently TBK1 and IRF3 phosphorylation; also recorded: able to prevent the phosphorylation of STING, TBK1 and IRF3
- Cxcl10 production in response to ISD (qPCR) (STING signaling [3]): dramatically decreased
- Cxcl5 production in response to ISD (qPCR) (STING signaling [3]; 50 μM): dramatically decreased
- phosphorylation of TBK1, IRF3 and STING (Western blot) (STING signaling [4]): prevented the phosphorylation of either TBK1 or IRF3
- Cxcl10 expression / cytokine production in TREX1-deficient macrophages (qPCR) [5]: can repress cytokine production in TREX1-defective cells; also recorded: dramatically decreased; also recorded: inhibits TREX1 dependent Cxcl10 expression
- inflammation in the heart (H&E staining) (TREX1-deficient mice): Less inflammation in the heart
- survival of TREX1-deficient mice (TREX1-deficient mice; intraperitoneal, 25 μg/mouse, 5 months, compared to mock treated): survival was significantly improved over several months; also recorded: extended the life of TREX1-deficient mice
